Series [1] concerns male black-banded Dutch rabbits.
Description: The binding of the compound to melanin may affect ocular pharmacokinetics after topical administration. […] In such cases, the compound may bind to melanin tissues in the posterior segment (retinal pigment epithelium, choroid) or anterior segment (ciliary body, iris) of the eye.
In the next series the target is VEGFR2 (Homo sapiens, UniProt P35968). Nature of the series: Kinase inhibition, Mobility Shift Assay/IMAP, VEGFR2. Details: purchased Carna 08-191. In kind it is biochemical. The method in brief: (§1)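 Substrate conversion (phosphorylated vs non-phosphorylated) read by mobility shift on Caliper EZ Reader II and converted to % inhibition relative to no-enzyme and DMSO controls. IC50 fitted from % inhibition versus log compound concentration.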

The target in another series is T1, EGFR (Homo sapiens, UniProt P00533).
T1 construct: purchased Carna 08-115
In words: Kinase inhibition, Mobility Shift Assay/IMAP, EGFR. Type of series: biochemical. Put shortly:
as §1

Another series concerns the target T2, TIE2 (Homo sapiens, UniProt Q02763).
T2 construct: purchased BPS 40270
In words: Kinase inhibition, Mobility Shift Assay/IMAP, TIE2. Type of series: biochemical. Put shortly:
as §1

For series [2] the following is noted: rabbit; for MTD on the third day of eye drop administration: eye drops 3 times a day, both eyes; for MTD on the eighth day of eye drop administration: six consecutive days of eye drops, 3 times a day.
Protocol: We used male Dutch black-banded rabbits to assess the MTD of the compounds administered in eye drops.
Male Dutch black-banded rabbits (weighing 1.5 kg to 2.5 kg) were purchased from an eligible supplier.
A total of 8 rabbits animals with good health conditions and normal eyes (without abnormalities such as trauma, congestion, redness and swelling) were randomly divided into 4 groups. […] Eye drop administration was conducted for two consecutive days, 3 times a day, at an interval of 6±0.5 hours. Before administration, the status of the dosing preparation was inspected, and its homogeneity was ensured by means of vortexing, stirring, or shaking. Before each administration, the states of rabbit eyes were observed, including but not limited to eye color, substances around the eyes, conjunctival swelling, eye exudate, discharge, cornea, pupillary reflex, etc. Subsequently, the toxicity risk assessment for six consecutive days of eye drop administration was further conducted. A total of 8 rabbits were randomly divided into 2 groups. […] Eye drop administration was conducted 3 times a day, at an interval of 6±0.5 hours.
A further series relates to HUVEC cells. Nature of the series: Inhibition of VEGF-induced HUVEC cell proliferation, CellTiter Glo. Type of series: cell-based. Particulars: Homo sapiens, 20 ng/ml VEGF, 72 hours. Put shortly: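 HUVEC (4000/well) serum-starved overnight in RPMI-1640 with 5% FBS, compound added 1 h before VEGF (20 ng/ml final in controls). After 72 h at 37 °C, viable cells were quantified by CellTiter-Glo luminescence; % inhibition fitted against log concentration, DMSO+VEGF wells as high control and cell-free wells as low.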
(In general: ATP-based viability assays read luminescence as a measure of living cells.)

For a further series, the system named is melanin. Nature of the series: Binding capacity of compounds to melanin. The following applies: cuttlefish (Sepia officinalis), melanin suspension (1 mg/mL); 1 mg/mL melanin in PBS pH 7.4, 2 μM compound, 2 h at 37° C.; read-out: Fu % (percentage of free drug). Type of series: in vitro ADME, cuttlefish (Sepia officinalis). Put shortly: (§2)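 Compound (2 μM final) incubated with washed Sepia melanin (1 mg/mL, PBS pH 7.4) 2 h at 37° C with shaking; PBS with 0.1% BSA served as blank. Supernatants quantified by LC-MS/MS; bound fraction Fb derived from melanin versus blank concentration.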

Series [3] is described as follows: Solubility test in buffer, LC-MS. Type of series: physicochemical. Particulars: aqueous buffer, thermodynamic from solid, room temperature, shaking 8 h, pH not given (method: pH 2.0, 6.5, 7.4). Put shortly:
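Compound at 2 mg/mL in buffers of pH 2.0, 6.5 and 7.4, sonicated, shaken 8 h at room temperature, then centrifuged at 13,000 rpm. Supernatant quantified by LC-MS against a 3–5 point calibration.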

Series [4] is described as follows: Binding capacity of compounds to melanin. In kind it is in vitro ADME, cuttlefish (Sepia officinalis). The method in brief:
as §2

The mark [5] stands for this setting: eye drops, male black-banded Dutch rabbits, third day after eye drop administration.

We go through 2 compounds from patent publication US20260217698A1 (BEYANG THERAPEUTICS CO., LTD., priority 2022, published 2026).

In brackets after ≈: the same amount, converted by molar mass. Read-outs that look alike come from different tables or passages of the source. A value given as a limit tells only on which side of the number the result lay.

A word on the IC50: it is the concentration at which inhibition is half-maximal. As usually defined, the solubility is how much of the substance goes into solution per volume. A low value points to a poorly soluble substance.

T2 sequence (Q02763 23-1124): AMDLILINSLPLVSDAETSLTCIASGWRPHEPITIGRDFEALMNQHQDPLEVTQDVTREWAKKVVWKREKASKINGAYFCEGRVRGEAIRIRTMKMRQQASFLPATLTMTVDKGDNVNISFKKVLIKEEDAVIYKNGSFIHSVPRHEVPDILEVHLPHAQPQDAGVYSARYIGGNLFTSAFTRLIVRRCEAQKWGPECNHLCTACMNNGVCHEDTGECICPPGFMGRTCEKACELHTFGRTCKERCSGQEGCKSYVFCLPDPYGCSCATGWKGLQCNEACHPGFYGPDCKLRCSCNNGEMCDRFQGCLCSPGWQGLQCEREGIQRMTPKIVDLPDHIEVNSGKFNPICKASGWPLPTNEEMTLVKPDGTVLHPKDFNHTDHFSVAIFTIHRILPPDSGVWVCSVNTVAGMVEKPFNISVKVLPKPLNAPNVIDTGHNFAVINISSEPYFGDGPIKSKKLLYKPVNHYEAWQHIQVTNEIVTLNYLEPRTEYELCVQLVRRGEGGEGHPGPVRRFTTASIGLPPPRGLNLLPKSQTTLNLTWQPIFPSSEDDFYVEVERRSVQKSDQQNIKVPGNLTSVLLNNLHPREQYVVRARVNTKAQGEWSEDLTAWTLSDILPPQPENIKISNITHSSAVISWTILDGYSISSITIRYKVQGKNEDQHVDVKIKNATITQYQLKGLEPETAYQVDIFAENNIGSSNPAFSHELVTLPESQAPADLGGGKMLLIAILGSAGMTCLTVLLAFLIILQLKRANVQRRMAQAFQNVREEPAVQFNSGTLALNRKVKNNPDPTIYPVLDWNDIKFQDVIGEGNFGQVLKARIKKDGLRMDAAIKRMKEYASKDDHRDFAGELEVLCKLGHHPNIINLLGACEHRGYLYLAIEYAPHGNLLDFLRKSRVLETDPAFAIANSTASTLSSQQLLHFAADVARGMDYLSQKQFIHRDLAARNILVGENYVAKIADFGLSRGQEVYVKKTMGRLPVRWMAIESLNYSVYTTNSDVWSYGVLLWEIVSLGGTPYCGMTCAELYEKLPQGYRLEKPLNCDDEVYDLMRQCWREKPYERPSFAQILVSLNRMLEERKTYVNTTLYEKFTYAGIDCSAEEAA
Chain of VEGFR2 (P35968 790-1356 limits assumed): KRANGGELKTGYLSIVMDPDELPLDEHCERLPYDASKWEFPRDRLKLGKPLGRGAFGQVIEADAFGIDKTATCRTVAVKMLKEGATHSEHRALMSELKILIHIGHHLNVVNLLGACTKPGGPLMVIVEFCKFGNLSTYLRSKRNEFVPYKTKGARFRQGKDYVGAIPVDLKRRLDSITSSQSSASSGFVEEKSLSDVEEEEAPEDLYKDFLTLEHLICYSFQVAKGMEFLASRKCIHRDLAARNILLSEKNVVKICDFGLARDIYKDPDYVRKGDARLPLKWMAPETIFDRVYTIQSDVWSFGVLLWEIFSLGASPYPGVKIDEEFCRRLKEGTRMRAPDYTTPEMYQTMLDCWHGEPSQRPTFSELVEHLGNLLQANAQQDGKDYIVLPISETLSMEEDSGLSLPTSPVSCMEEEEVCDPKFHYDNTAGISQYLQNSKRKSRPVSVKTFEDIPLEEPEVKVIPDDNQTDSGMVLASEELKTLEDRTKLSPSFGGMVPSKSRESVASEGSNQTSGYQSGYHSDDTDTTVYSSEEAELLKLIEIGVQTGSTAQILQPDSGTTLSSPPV
T1 sequence (P00533 669-1210 limits assumed): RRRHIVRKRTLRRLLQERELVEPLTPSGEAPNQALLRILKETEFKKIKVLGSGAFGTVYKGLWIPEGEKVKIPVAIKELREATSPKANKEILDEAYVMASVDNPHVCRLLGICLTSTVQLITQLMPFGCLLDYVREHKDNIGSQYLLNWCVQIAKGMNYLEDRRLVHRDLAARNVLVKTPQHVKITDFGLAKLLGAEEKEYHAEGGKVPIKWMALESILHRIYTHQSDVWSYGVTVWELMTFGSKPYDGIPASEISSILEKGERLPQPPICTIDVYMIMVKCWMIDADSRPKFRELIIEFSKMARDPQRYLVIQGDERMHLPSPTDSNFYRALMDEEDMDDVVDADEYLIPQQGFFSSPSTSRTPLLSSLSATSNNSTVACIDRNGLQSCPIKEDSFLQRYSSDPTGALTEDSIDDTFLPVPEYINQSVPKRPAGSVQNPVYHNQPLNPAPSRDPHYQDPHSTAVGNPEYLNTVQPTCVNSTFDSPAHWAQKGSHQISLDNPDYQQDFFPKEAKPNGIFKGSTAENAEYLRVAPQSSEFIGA

Regarding `COc1ccc(F)c(COc2nsc(NC(=O)NCCCCN3CCCC3)c2C(N)=O)c1F` [Compound T093, 3-((2,6-difluoro-3-methoxybenzyl)oxy)-5-(3-(4-(pyrrolidin-1-yl)butyl)ureido)isothiazole-4-carboxamide], the “maximum tolerated dose (MTD)” value in [1] (setting [5]) is on record as at least 250 μg/eye. The IC50 on VEGFR2 is 12.4 nM; on EGFR, 14600 nM; on TIE2, 181 nM; in the series on HUVEC cells, 55.8 nM. The “MTD on the third day of eye drop administration” value in [2] was at least 250 μg/eye. For the same compound, the “MTD on the eighth day of eye drop administration” value in series [2] is on record as at least 250 μg/eye. The fraction unbound at 2 h, 2 μM in the series with melanin stood at 0.0531.

For `NC(=O)c1c(OCc2c(F)cc(Br)cc2F)nsc1NC(=O)NCCCCN1CCCC1` [PAN90806], in [1] (eye drops to rabbits for six consecutive days), the “maximum tolerated dose (MTD)” value is listed as 50 μg/eye. In series [1] (setting [5]), the “maximum tolerated dose (MTD)” value was found to be 100 μg/eye. For the same compound, the Eye observations result in series [2] (100 μg/eye, six consecutive days, seventh day) is “ocular toxicity (corneal opacity and conjunctival swelling, or corneal edema and conjunctival hyperemia, or ocular discharge) was observed in all the 4 rabbits”. In addition, in series [2], the “MTD on the third day of eye drop administration” value is given as 100 μg/eye and the “MTD on the eighth day of eye drop administration” value came out at 50 μg/eye. Besides, the half-maximal inhibitory concentration (IC50) with HUVEC cells is 76.8 nM. In series [3], this compound displayed a solubility at 8 h of 124 µg/mL (≈ 234 µM). Moreover, the fraction unbound at 2 h, 2 μM in the series on melanin came to 0.0129. Further, the “Percentage of free drug with respect to melanin, comparison in words” value in [4] was “lower percentage of free drug”.
